# Source: patent US3978130A, “1-Cyclopropyl-1-phenyl-ω-amino-1-alkanols” (A. H. Robins Company, Incorporated, priority 1974, dated 1976)
# Where a name gives a salt, the structure may show the parent alone.
# System: depressant effects induced in mice by tetrabenazine
# Test: Blocking of the depressant effects induced in mice by intravenous tetrabenazine (modified Englehardt procedure)
# Assay type: in vivo
# Details: Mus musculus, IP
# Experimental: The activity of the compounds was determined by their effectiveness in blocking the depressant effects which are induced in mice by the intravenous administration of 2-oxo-3-isobutyl-9,10-dimethoxy-1,2,3,4,6,7-hexahydro-11bh-benzo[a] quinolizine (tetrabenazine). The procedure used was a modification of Englehardt, E. L. et al, J. Med. Chem. 11 (2), 325(1968). The ED50 values of the compounds are given in Table I; the compounds of Examples 3, 5, 7 and 8 are the preferred compounds.
row,Structure (SMILES),ED50 [mg/kg]
1,"CN(C)CCC(O)(c1ccccc1)C1CC1 (centres unmarked) [Example 1, 1-Cyclopropyl-3-dimethylamino-1-phenyl-1-propanol Hydrochloride]",10
2,"CN(C)CCCC(O)(c1ccccc1)C1CC1 (centres unmarked) [Example 2, 1-Cyclopropyl-4-dimethylamino-1-phenyl-1-butanol Hydrochloride]",12.5
3,"CN(C)CCC(O)(c1cccc(Cl)c1)C1CC1 (centres unmarked) [Example 3, 1-Cyclopropyl-3-dimethylamino-1-(3-chlorophenyl)-1-propanol Hydrochloride]",6.4
4,"COc1ccc(C(O)(CCN(C)C)C2CC2)cc1 (centres unmarked) [Example 4, 1-Cyclopropyl-3-dimethylamino-1-(4-methoxyphenyl)-1-propanol Hydrobromide]",7.8
5,"CN(C)CCC(O)(c1cccc(C(F)(F)F)c1)C1CC1 (centres unmarked) [Example 5, 1-Cyclopropyl-3-dimethylamino-1-(3-trifluoromethylphenyl)-1-propanol Hydrochloride]",2.5
6,"CN(C)CCC(O)(c1ccc(C(F)(F)F)cc1)C1CC1 (centres unmarked) [Example 6, 1-Cyclopropyl-3-dimethylamino-1-(4-trifluoromethylphenyl)-1-propanol Hydrochloride]",12
7,"CCN(CC)CCC(O)(c1cccc(C(F)(F)F)c1)C1CC1 (centres unmarked) [Example 7, 1-Cyclopropyl-3-diethylamino-1-(3-trifluoromethylphenyl)-1-propanol Hydrochloride]",4.2
8,"CNCCC(O)(c1cccc(C(F)(F)F)c1)C1CC1 (centres unmarked) [Example 8, 1-Cyclopropyl-3-methylamino-1-(3-trifluoromethylphenyl)-1-propanol]",4.6
